# Results: patent US20100041089A1, “IMPROVED METHOD FOR DETECTING CHEMICAL […]” (priority 2006, published 2010)
# System: yeast genes (expressed mRNA)
# Assay: DNA chip measurement of expressed mRNA of yeast genes after culture with a toxic chemical substance
# Format: cell-based, Saccharomyces cerevisiae S288C
# Description: Yeast (Saccharomyces cerevisiae S288C (a SUC2mal mel gap2 CUP1)) were cultured at 25° C. on YPD medium (yeast extract 1%, polypeptone 2%, glucose 2%). One of toxic chemical substances was added to the cell at logarithmic growth phase, and the cell was further cultured for two hours. Cell was cultured without any chemical substance in the same condition, and was used as a control. Concentrations of the chemical substances were defined to inhibit the growth of the yeast but not lead to death.
# After the completion of cultivation, the culture was centrifuged to collect the cells. To the cells, sodium acetate buffer (50 mM sodium acetate, 10 mM EDTA, 1% SDS) was added, and the mixture was shaken at 65° C. for five minutes, followed by returning to room temperature, and obtaining the supernatant, which procedure was repeated two times. To the supernatant, ½ amount of a solution of phenol/chloroform (1:1) was added, and the mixture was centrifuged to give a supernatant, an equal amount of chloroform was added, and the mixture was centrifuged to give a supernatant. To the supernatant, an equal amount of isopropanol containing 0.3 M sodium acetate was added, and the mixture was allowed to stand at room temperature for 30 minutes, after which the mixture was centrifuged to give sediment of the whole RNAs. Seventy % ethanol was added to the sediment, and the mixture was again centrifuged to give sediment, which was then dried and dissolved in water. mRNA was isolated from the whole RNAs as followings. In view of the fact that a poly A chain is attached to the 3′ terminus of mRNA, a polynucleotide having a poly T structure which was immobilized on the surface of latex beads was used to trap the mRNA, and then the mRNA was washed and eluted with spine column (Oligotex-dT30<Super>mRNA Purification Kit, Takara). Reverse transcription of the mRNA was conducted with a reverse transcriptase (Super Script II Reverse Transcriptase; catalogue No. 18064-014, GibcoBRL) using fluorescence-labeled nucleotides to give cDNAs that were introduced with Cy3-dUTP or Cy5-dUTP during the reverse transcription.
# The labeled cDNAs were dissolved in TE buffer (10 mM Tris-HCl/1 mM EDTA, pH 8.0), and the solution was dropped on the DNA chip containing the whole genes of yeast (DNA Chip Research Inc. Japan) so that the cDNAs were hybridized on the DNA chip at 65° C. for over 12 hours. The fluoresces intensity of the DNA chip was read with a scanner, and the ratio relative to the fluorescence intensity resulting from the absence of chemical substance was estimated as the following, which is shown in Tables 1 to 9.
# In the Tables, “Intensity” indicated in the rightmost column is a value of the level of expressed mRNA of each gene in control cells as divided by the average level of the expressions of the whole genes. A gene of which mRNA level is lower in control, and is higher in cases of addition of chemical substance, is especially useful in the detection of toxic substances.
# Here, when a ratio of an amount of mRNA expressed in the presence of the chemical substance to an amount of mRNA expressed in the absence of the chemical substance is two or more, then it is considered significant.
structure (smiles),measurement,setting,value
"CCCCCCCCCCCCOS(=O)(=O)[O-].[Na+] [(18), Sodium lauryl sulfate]",The level of expressed mRNA in the presence of chemical substance/The level of expressed mRNA in the absence of chemical substance,"yeast gene YAL053W, cultured two hours with substance",1.6
same,The level of expressed mRNA in the presence of chemical substance/The level of expressed mRNA in the absence of chemical substance,"yeast gene YAR028W, cultured two hours with substance",2.1
same,The level of expressed mRNA in the presence of chemical substance/The level of expressed mRNA in the absence of chemical substance,"yeast gene YAR031W, cultured two hours with substance",2.5
same,The level of expressed mRNA in the presence of chemical substance/The level of expressed mRNA in the absence of chemical substance,"yeast gene YBL048W, cultured two hours with substance",1.0
same,The level of expressed mRNA in the presence of chemical substance/The level of expressed mRNA in the absence of chemical substance,"yeast gene YBL057C, cultured two hours with substance",1.2
same,The level of expressed mRNA in the presence of chemical substance/The level of expressed mRNA in the absence of chemical substance,"yeast gene YBL107C, cultured two hours with substance",1.4
same,The level of expressed mRNA in the presence of chemical substance/The level of expressed mRNA in the absence of chemical substance,"yeast gene YBR005W, cultured two hours with the substance",4.6
same,The level of expressed mRNA in the presence of chemical substance/The level of expressed mRNA in the absence of chemical substance,yeast gene YCL035C (detoxification protein gene),4.2
same,The level of expressed mRNA in the presence of chemical substance/The level of expressed mRNA in the absence of chemical substance,yeast gene YCL035C (stress protein genes),4.2
same,The level of expressed mRNA in the presence of chemical substance/The level of expressed mRNA in the absence of chemical substance,"yeast gene YCR015C, cultured two hours with the chemical substance",1.2
same,The level of expressed mRNA in the presence of chemical substance/The level of expressed mRNA in the absence of chemical substance,"yeast gene YDL072C, cultured two hours with substance",2.8
same,The level of expressed mRNA in the presence of chemical substance/The level of expressed mRNA in the absence of chemical substance,"yeast gene YDL110C, cultured two hours with substance",4.4
same,The level of expressed mRNA in the presence of chemical substance/The level of expressed mRNA in the absence of chemical substance,"yeast gene YDL204W, cultured two hours with substance",2.7
same,The level of expressed mRNA in the presence of chemical substance/The level of expressed mRNA in the absence of chemical substance,"yeast gene YDL222C, cultured two hours with substance",1.3
same,The level of expressed mRNA in the presence of chemical substance/The level of expressed mRNA in the absence of chemical substance,"yeast gene YDR018C, cultured two hours with substance",1.2
same,The level of expressed mRNA in the presence of chemical substance/The level of expressed mRNA in the absence of chemical substance,"yeast gene YDR031W, cultured two hours with substance",2.5
same,The level of expressed mRNA in the presence of chemical substance/The level of expressed mRNA in the absence of chemical substance,"yeast gene YDR070C, cultured two hours with substance",3.1
same,The level of expressed mRNA in the presence of chemical substance/The level of expressed mRNA in the absence of chemical substance,"yeast gene YDR330W, cultured two hours with substance",1.3
same,The level of expressed mRNA in the presence of chemical substance/The level of expressed mRNA in the absence of chemical substance,"yeast gene YDR350C, cultured two hours with substance",1.2
same,The level of expressed mRNA in the presence of chemical substance/The level of expressed mRNA in the absence of chemical substance,"yeast gene YDR391C, cultured two hours with substance",2.4
same,The level of expressed mRNA in the presence of chemical substance/The level of expressed mRNA in the absence of chemical substance,"yeast gene YDR411C, cultured two hours with substance",1.3
same,The level of expressed mRNA in the presence of chemical substance/The level of expressed mRNA in the absence of chemical substance,"yeast gene YDR482C, cultured two hours with substance",1.2
same,The level of expressed mRNA in the presence of chemical substance/The level of expressed mRNA in the absence of chemical substance,"yeast gene YDR486C, cultured two hours with substance",1.7
same,The level of expressed mRNA in the presence of chemical substance/The level of expressed mRNA in the absence of chemical substance,"yeast gene YDR511W, cultured two hours with substance",1.5
same,The level of expressed mRNA in the presence of chemical substance/The level of expressed mRNA in the absence of chemical substance,"yeast gene YDR531W, cultured two hours with substance",1.2
same,The level of expressed mRNA in the presence of chemical substance/The level of expressed mRNA in the absence of chemical substance,"yeast gene YDR545W, cultured two hours with substance",0.9
same,The level of expressed mRNA in the presence of chemical substance/The level of expressed mRNA in the absence of chemical substance,"yeast gene YEL001C, cultured two hours with substance",1.3
same,The level of expressed mRNA in the presence of chemical substance/The level of expressed mRNA in the absence of chemical substance,"yeast gene YER004W, cultured two hours with substance",1.2
same,The level of expressed mRNA in the presence of chemical substance/The level of expressed mRNA in the absence of chemical substance,"yeast gene YER035W, cultured two hours with substance",2.1
same,The level of expressed mRNA in the presence of chemical substance/The level of expressed mRNA in the absence of chemical substance,"yeast gene YER038C, cultured two hours with substance",1.4
same,The level of expressed mRNA in the presence of chemical substance/The level of expressed mRNA in the absence of chemical substance,"yeast gene YER079W, cultured two hours with substance",1.6
same,The level of expressed mRNA in the presence of chemical substance/The level of expressed mRNA in the absence of chemical substance,"yeast gene YER106W, cultured two hours with substance",0.8
same,The level of expressed mRNA in the presence of chemical substance/The level of expressed mRNA in the absence of chemical substance,"yeast gene YER158C, cultured two hours with substance",1.2
same,The level of expressed mRNA in the presence of chemical substance/The level of expressed mRNA in the absence of chemical substance,"yeast gene YER163C, cultured two hours with substance",1.2
same,The level of expressed mRNA in the presence of chemical substance/The level of expressed mRNA in the absence of chemical substance,"yeast gene YER175C, cultured two hours with substance",1.2
same,The level of expressed mRNA in the presence of chemical substance/The level of expressed mRNA in the absence of chemical substance,"yeast gene YFL006W, cultured two hours with substance",0.8
same,The level of expressed mRNA in the presence of chemical substance/The level of expressed mRNA in the absence of chemical substance,"yeast gene YFL010C, cultured two hours with substance",1.6
same,The level of expressed mRNA in the presence of chemical substance/The level of expressed mRNA in the absence of chemical substance,"yeast gene YFL014W, DNA repair protein genes, cultured two hours with substance",8.8
same,The level of expressed mRNA in the presence of chemical substance/The level of expressed mRNA in the absence of chemical substance,"yeast gene YFL024C, cultured two hours with substance",0.8
